Series [1] relates to CCRF-CEM cells. Put plainly: [3H]MTX uptake (initial velocity and 30 min accumulation) in CCRF-CEM cells. Type of series: cell-based, human. The protocol:
(§1) Quantitation of folate and antifolate uptake. The method is essentially as follows. Briefly, logarithmically growing (3-5×10^5/ml) CCRF-CEM cells were harvested at room temperature by centrifugation at 1000×g for 5 min. After washing with the appropriate medium, cells were suspended at ≈2×10^7 cells/ml for use in transport studies. […] Anion-free MHS contains 250 mM sucrose and 20 mM HEPES, titrated to pH 7.4 with MgO. […] Uptake was measured as a function of time for 30 min (for rate and extent measurements) or over 5 min (studies requiring initial velocities). […] Uptake was terminated by diluting 100 μL samples into 1 ml of iced 0.9% NaCl. […] The supernatant was aspirated. The cell pellet was washed once with 1 ml iced 0.9% NaCl and centrifuged as above. The washed pellet was solubilized in 1 ml of 0.3% Triton X-100 by incubation for 60 min at 37° C. The solubilized pellet was transferred to a scintillation vial, 10 ml of Liquiscint (National Diagnostics, Atlanta, Ga.) was added and radioactivity was quantitated in a Beckman Model LS6500 liquid scintillation counter. Separate samples at the longest incubation time used in a particular experiment were harvested for HPLC analysis of intracellular contents as above, except that after the second wash the pellets were extracted with 1 ml boiling 0.1 M Na-phosphate, pH 5.5. The extract was clarified by centrifugation and the supernatant was filtered through an MPS-1 filter unit (Amicon) prior to HPLC analysis.

Series [2] deals with CCRF-CEM. As to conditions: 10 μg/ml, within 5 min; cited from earlier work.
The subject of series [3] is CCRF-CEM cells. The series can be described thus: [3H]leucovorin uptake in CCRF-CEM cells. The series is classed as cell-based, human. The method, then: as §1
The test system of series [4] is CCRF-CEM cells. Put plainly: cells. Type of series: cell-based, human. Conditions: read-out: EC50 for growth inhibition. The method, then:
Inhibition of growth of human cell lines in vitro. Inhibition of growth of CCRF-CEM in continuous and intermittent drug exposures was measured. EC50 values were determined from plots of percent control growth versus the logarithm of drug concentration.
[…]; n=2). […]; n=2). Values presented are average±S.D. for n>2 and average±range for n=2. […] […]; EC50 data may therefore underestimate the biological potency.

Series [5] relates to CCRF-CEM cells. Put plainly: Subcellular localization of [3H]MTX. Type of series: cell-based, human. Conditions: 30 min uptake of 2 μM [3H]MTX; 2 μM TMTX, 500 μM Z. The protocol:
Subcellular fractionation. […] Cells were diluted 9-fold in iced 0.9% NaCl, centrifuged at 1000×g for 5 min and washed once with 40 ml iced saline. All subsequent steps were performed at 4°. Cells were homogenized as previously described, except that hypotonic buffer at 20-fold the packed cell volume was used, and the homogenate was centrifuged for 6 min at 1000×g to yield a nuclear pellet (also containing unlysed cells and large debris) and a post-nuclear supernatant (PNS). Based on controls using nonradiolabeled cells, >91% of the cells would be lysed during homogenization. The PNS was centrifuged at 17,000×g to yield a combined mitochondria-lysosome pellet. The resulting supernatant was centrifuged at 100,000×g for 60 min to yield the 100,000×g supernatant (cytosol). The 100,000×g pellet (microsomes) and the combined mitochondria-lysosome pellet were each washed in isotonic buffer and centrifuged at their respective g-forces. All pellets were solubilized in 0.3% Triton X-100 by incubating at 37° for 1 hr; 1 ml was transferred to a scintillation vial for quantitation. Triton X-100 was added to the cytosol to a final concentration of 0.3% and a 1 ml aliquot was quantitated. Radioactivity in each fraction was corrected for a blank containing 0.3% Triton X-100.

For series [6], the target named is T1, reduced folate carrier (RFC) (Homo sapiens, UniProt P41440).
T1 construct: endogenous in cells; host or cells: CCRF-CEM (parental)
T1 sequence (P41440 1-591): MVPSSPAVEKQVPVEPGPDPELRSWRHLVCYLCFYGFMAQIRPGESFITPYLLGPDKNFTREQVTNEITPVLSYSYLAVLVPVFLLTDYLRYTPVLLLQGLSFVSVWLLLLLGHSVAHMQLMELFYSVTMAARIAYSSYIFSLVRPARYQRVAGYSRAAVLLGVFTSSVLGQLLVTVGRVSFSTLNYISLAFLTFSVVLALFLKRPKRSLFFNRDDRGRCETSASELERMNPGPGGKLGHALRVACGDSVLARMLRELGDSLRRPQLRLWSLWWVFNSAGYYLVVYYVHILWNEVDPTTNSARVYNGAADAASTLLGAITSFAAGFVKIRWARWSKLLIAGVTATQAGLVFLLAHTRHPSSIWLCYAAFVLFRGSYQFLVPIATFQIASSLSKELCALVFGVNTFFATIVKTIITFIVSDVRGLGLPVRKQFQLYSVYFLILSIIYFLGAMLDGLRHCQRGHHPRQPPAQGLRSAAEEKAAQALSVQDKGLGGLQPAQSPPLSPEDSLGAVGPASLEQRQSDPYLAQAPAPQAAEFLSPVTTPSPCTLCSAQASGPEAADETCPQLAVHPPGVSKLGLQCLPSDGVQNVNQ
Put plainly: Kinetic constants for influx of [3H]MTX by CCRF-CEM cells. Type of series: cell-based. As to conditions: influx of [3H]MTX; pre-incubation with solvent (MTX alone), 1 μM TMTX, or 1 μM TMTX + 0.5 mM Z. The method, then: as §1
Inhibition of the vi of uptake was measured after pre-incubation of CCRF-CEM cells either with TMTX alone (measuring inhibition at the RFC) or with TMTX+Z (measuring inhibition during Z potentiation). […] All studies were carried out in standard transport medium. Inhibitory potency was measured in two series of experiments and AMT was included in each series as an internal control. Values are average±range of two determinations. […] Values are average±range for duplicate determinations.

For series [7], the system named is CCRF-CEM cells. Put plainly: Effect of protein kinase inhibitors on [3H]MTX uptake. The series is classed as cell-based, human. An excerpt:
To determine whether protein phosphorylation is involved in the mechanism of Z potentiation, we began studies with a series of protein kinase (PK) inhibitors (PKI).

[8] abbreviates: 1 μM [3H]LV, 10 min preincubation, 1 μM TMTX, 0.5 mM Z.

These results are taken from patent publication US7687473B2, “5-amino-4-imidazolecarboxamide riboside and its nucleobase as potentiators of antifolate transport and metabolism” (Health Research, Inc., priority 2005, dated 2010).

Broadly, the EC50 is the concentration needed to bring the measured effect to its halfway point.

As to `C[C@@H]1C[C@@H]([C@H](O)CC2CC(=O)NC(=O)C2)C(=O)[C@@H](C)C1` [CHX, cycloheximide], the “Potentiation of [3H]MTX influx by 0.5 mM Z after protein synthesis inhibition” value in series [1] (10 μg/ml CHX preincubated 10 min, Z added for last 5 min) was “potentiation still occurred”. In series [2], the “Inhibition of protein synthesis” value is reported as “completely inhibited”.
In the case of `Cc1ccc2nc(N)[nH]c(=O)c2c1Sc1ccncc1` [AG337], in series [3] (20 μM), the “Effect on potentiation of LV uptake induced by TMTX+Z” value is given as “completely block”. Also, the “Potentiation of [3H]LV uptake” value in series [3] (10 min preincubation at 2 or 20 μM, presence or absence of Z) was “does not potentiate”. In series [4], the concentration giving a half-maximal response (EC50) amounted to 600 nM.
For the compound `COc1cc(NCc2ccc3nc(N)nc(N)c3c2C)cc(OC)c1OC` [TMTX, trimetrexate], in series [5], the “Relative radioactivity, Cytosol” value was 88.9%; the “Relative radioactivity, Microsomes” value is reported as 0.2%; the “Relative radioactivity, Mito-Lysosomes” value is listed as 0.4%; the “Relative radioactivity, Nuclear Pellet” value was determined as 10.5%. For the same compound, in series [5], the “Total [3H]MTX recovered in all four fractions” value is given as 338.4 pmol; the “[3H]MTX/fraction, Cytosol” value is listed as 300.3 pmol; the “[3H]MTX/fraction, Microsomes” value is listed as 0.7 pmol; the “[3H]MTX/fraction, Mito-Lysosomes” value is given as 1.3 pmol. Further, the “[3H]MTX/fraction, Nuclear Pellet” value in series [5] was determined as 35.5 pmol. Moreover, in series [1] (10 min preincubation with 2 μM TMTX, no Z), the “Extent of [3H]MTX accumulation at 30 min relative to absence of TMTX” value was 90-100%. Also, in series [3] (setting [8]), the “Increase in 30 min accumulation (extent) of [3H]LV” value amounted to 1.6 fold and the “Increase in vi of [3H]LV uptake” value was determined as 1.4 fold. Besides, in series [6], the Kt is 5.3 ± 0.6 µM, the Vmax was found to be 7.2 ± 0.6 pmol/min/10^7 cells and the Vmax/Kt is listed as 1.36.
As for `O=c1c(O)c(-c2ccc(O)c(O)c2)oc2cc(O)cc(O)c12` [Quercetin, quercetin], the figures for the “Decrease of 30 min accumulation +TMTX+Z” value in series [7] (50 μM) and in series [7] (100 μM) were 21% and 38%, respectively. Further, the figures for the “Decrease of initial influx rate” value in series [7] (50 μM) and in series [7] (100 μM) were 43% and 55%, respectively. Moreover, in series [7] (50 or 100 μM), the “Increase of uptake +TMTX at 30 min” value was 10-12%.
